{"source": "BindingDB's records for doi:10.1021/jm500228a", "about": "(Gilead Sciences, 2014)", "experiment": "Inhibition of Flt3 in human MV411 cells assessed as assessed as proliferation after 72 hrs incubation by spectrophotometry", "data": [{"smiles": "c1cn2cc(-c3ccc4cn[nH]c4c3)nc(Nc3ccc(N4CCOCC4)cc3)c2n1", "values": [{"measurement": "EC50", "result": 327, "unit": "nM"}]}]}
